The source of these data is patent publication US8288371B2, “Ortho pyrrolidine, benzyl-substituted heterocycle CCR1 antagonists for autoimmune diseases and inflammation” (Pharmacopeia, LLC, priority 2007, dated 2012).

The target of this experiment is T1, human CCR1 (Homo sapiens, UniProt P32246).
T1 sequence (P32246 1-355): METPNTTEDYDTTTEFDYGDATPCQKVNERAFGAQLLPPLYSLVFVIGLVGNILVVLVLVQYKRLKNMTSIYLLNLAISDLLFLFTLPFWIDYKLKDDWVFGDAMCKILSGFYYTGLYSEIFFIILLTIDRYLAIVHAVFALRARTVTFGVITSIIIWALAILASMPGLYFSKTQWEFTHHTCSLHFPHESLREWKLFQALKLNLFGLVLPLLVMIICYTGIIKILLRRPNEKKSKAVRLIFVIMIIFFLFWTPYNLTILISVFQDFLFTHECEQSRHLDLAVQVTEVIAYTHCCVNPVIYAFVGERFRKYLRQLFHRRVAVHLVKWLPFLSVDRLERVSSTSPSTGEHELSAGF
Nature of the experiment: CCR1 binding protocol (SPA, [125I]-MIP-1α displacement). The settings on record: cell membrane expressing human CCR1, 0.1 nM [125I]-MIP-1α, 4 hours at ambient temperature; read-out: Relative potency (IC50). The essentials:
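Displacement of 0.1 nM [125I]-MIP-1α (final) from membranes expressing human CCR1 was measured by scintillation proximity after 4 h at ambient temperature. Conditions: pH 7.4 Tris buffer with 0.1% BSA and MnCl, and 0.5 μg membrane per well. Compounds were tested as a 10-step ½-log series from a 10 mM DMSO stock to derive IC50.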
A word on the IC50: it is the concentration at which inhibition is half-maximal. With `CC[C@H](N/C(=C/[N+](=O)[O-])N1CCC[C@@H]1c1nnc(C)n1Cc1ccc(Cl)cc1)c1ccc(C(F)(F)F)nc1` [Compound 614], the IC50 was less than 50 nM.
The figure for `Cc1onc(C(F)(F)F)c1NC(=O)N1CCC[C@@H]1c1nnc(C)n1Cc1ccc(Cl)cc1` [Compound 615] is less than 50 nM; for `Cc1noc(C(F)(F)F)c1NC(=O)N1CCC[C@@H]1c1nnc(C)n1Cc1ccc(Cl)cc1` [Compound 616] it is less than 50 nM; for `Cc1nc(C(F)(F)F)ccc1CC(=O)N1CCC[C@@H]1c1ncnn1Cc1ccc(Cl)cc1` [Compound 617] it is 50 to 500 nM.
The figure for `Cc1nc(C(F)(F)F)ccc1CC(=O)N1CCC[C@@H]1c1nncn1Cc1ccc(Cl)cc1` [Compound 618] is less than 50 nM; for `Cc1nc(C(F)(F)F)ccc1CC(=O)N1C[C@@H](O)C[C@@H]1c1nnc(C)n1Cc1ccc(Cl)cc1` [Compound 619] it is less than 50 nM; for `Cc1nnc([C@H]2CCCN2C(=O)Nc2cccc(-c3ccnn3C)c2)n1Cc1ccc(Cl)cc1` [Compound 620] it is 500 to 5000 nM.
As for `Cc1nnc([C@H]2CCCN2C(=O)Nc2cccc(-c3ccn(C)n3)c2)n1Cc1ccc(Cl)cc1` [Compound 621], the figure is 50 to 500 nM.
Consider `Cc1nnc([C@H]2CCCN2C(=O)NCc2ccccc2-c2cc(C(F)(F)F)nn2C)n1Cc1ccc(Cl)cc1` [Compound 622], for which the IC50 was less than 50 nM.
The figure for `Cc1nnc([C@H]2CCCN2C(=O)NCC2(c3cccs3)CCOCC2)n1Cc1ccc(Cl)cc1` [Compound 623] is 500 to 5000 nM.
Turning to `Cc1nc(C(F)(F)F)ccc1[C@H](C)NC(=O)N1CCC[C@@H]1c1nnc(C)n1Cc1ccc(Cl)cc1` [Compound 624], the IC50 is less than 50 nM.
As for `CC[C@H](NC(=O)N1CCC[C@@H]1c1nnc(C)n1Cc1ccc(Cl)cc1)c1ccc(C)nc1C` [Compound 625], the figure is less than 50 nM; as for `Cc1ccc([C@H](C)NC(=O)N2CCC[C@@H]2c2nnc(C)n2Cc2ccc(Cl)cc2)c(C)n1` [Compound 626], 50 to 500 nM; as for `CC[C@H](NC(=O)N1CCC[C@@H]1c1nnc(C)n1Cc1ccc(Cl)cc1)c1ccc(C(F)(F)F)nc1C` [Compound 627], less than 50 nM.
Turning to `O=C(Nc1ccc(Cl)cc1F)N1CCC[C@@H]1c1nnsc1Cc1ccc(Cl)cc1` [Compound 628], the IC50 lay within 50 to 500 nM.
As for `Cc1noc(C)c1CC(=O)N1CCC[C@@H]1c1nncn1Cc1ccc(Cl)cc1` [Compound 629], the figure is 50 to 500 nM.
For the molecule `Cc1noc(C)c1CC(=O)N1C[C@@H](O)C[C@@H]1c1nnc(C)n1Cc1ccc(Cl)cc1` [Compound 630], the 50% inhibitory concentration (IC50) was 50 to 500 nM.
As for `Cc1noc(C)c1CC(=O)N1CCC[C@@H]1c1ncnn1Cc1ccc(Cl)cc1` [Compound 631], the figure is 500 to 5000 nM; as for `Cc1nc(C(F)(F)F)ccc1NC(=O)N1CCC[C@@H]1c1nnsc1Cc1ccc(Cl)cc1` [Compound 632], less than 50 nM.
As for `Cc1nnc([C@H]2CCCN2C(=O)Nc2ccc(C(F)(F)F)nc2)n1Cc1ccc(Cl)cc1` [Compound 633], the figure is 50 to 500 nM; as for `CCc1cc(Cn2c(C)nnc2[C@H]2CCCN2C(=O)Nc2ccc(C(F)(F)F)nc2C)ccc1Cl` [Compound 634], less than 50 nM.
As for `CCc1cc(Cn2c(C)nnc2[C@H]2CCCN2C(=O)Nc2ccc(Cl)cc2F)ccc1Cl` [Compound 635], the figure is 50 to 500 nM; as for `Cc1nc(C(F)(F)F)ccc1NC(=O)N1CC=C[C@@H]1c1nnc(C)n1Cc1ccc(Cl)cc1` [Compound 636], less than 50 nM.
